In a melting point compilation (Tetko et al.; mined from patent text by program, amines drawn as free bases though some values may be those of a salt):
Starred links: 1 amine or outer side, 2 acyl side, 3 side chain; linkers in the order of their positions; H or OH if unused. Residues, ends and D or L forms follow the SMILES beside them. Suc = O=C(CCC(=O)[*:2])[*:1]

melting point | SMILES
83 to 84 °C | CCOc1cccc(CC(=O)O)c1OCCCc1cn(-c2ccc(C(F)(F)F)cn2)nc1C(CC)CC
204 °C | CC(=O)OCc1ccc(-c2nc3c(s2)C(=O)c2ccccc2C3=O)o1
130 to 131 °C | NC(=O)CNC(=O)c1cccc(-c2c(F)ccc3cc(Cc4cccc(C(F)(F)F)c4)sc23)c1
127 to 134 °C | CC1Nc2ccccc2N2CCc3cccc1c32 (stereo not drawn)
132 to 135 °C | NS(=O)(=O)c1ccc(N2N=C(C(F)(F)F)CC2c2ccccc2)cc1 (stereo not drawn)
142 to 144 °C | CCN(CC)c1ccc2c(c1)OC(=O)C(C)(C#Cc1ccccc1)C2 (stereo not drawn)
61 to 65 °C | CC(C)CC1OC[C@@H]2CCCN2C1=O (stereo partly drawn)
132 to 136 °C | CCC1(C)SC(NC)=NN1C(=O)C(C)(C)C (stereo not drawn)
179 to 181 °C | CC(=O)Nc1ccc(Br)c2c1CCN(C(C)=O)C2
72 to 72.5 °C | c1ccc(-c2csc(-c3cnn4cccnc34)c2)cc1
112 to 115 °C | O=C(O)C(CC1CCCC1)c1ccc(Cl)c([N+](=O)[O-])c1 (stereo not drawn)
205 to 206 °C | O=C(O)c1ccnc(-c2ccc3c(c2)C(c2ccc(Cl)cc2Cl)CC3)c1 (stereo not drawn)
120 to 123 °C | CC(C)(C)OC(=O)NCCNC(=O)c1cc(Cl)ccn1
128 °C | Cn1ncnc1COc1nn2c(-c3ccccc3F)nncc2c1C(C)(C)C
83 to 84 °C | COc1ccc([C@@H]2Sc3cc(Cl)ccc3N(CCN(C)C)C(=O)[C@@H]2OCC(=O)OC(C)(C)C)cc1
> 250 °C | Cc1ccc(C)n1-c1cc2c(cc1C(F)(F)F)[nH]c(=O)c(=O)n2CC(=O)NCc1ccccc1
91 to 92 °C | Cc1ccc(-c2ccc3cc4c(cc3c2)C(C)(C)CCC4(C)C)cc1
179 to 180 °C | COC(=O)c1cnn(-c2c(Cl)cc(Cl)cc2Cl)c1N
179 °C | CC(C)CCC1(C(F)(F)F)NC(=O)Nc2ccc(F)cc21 (racemic)
65 to 75 °C | CCCCCCCCCCCCCC(C)S(=O)(=O)NC(=O)Nc1c(C(C)C)cccc1C(C)C (stereo not drawn)
165 °C | Cc1nc2n(c(=O)c1CCN1CCC(C(=O)c3ccc(F)cc3)CC1)CCCS2
160 to 162 °C | O=c1c2c(c3cccnc3n1-c1ccccc1)CCCC2
162 to 164 °C | CSc1ncc(Oc2cnccc2C)c(=O)[nH]1

melting point | SMILES
200 to 201 °C | C/C(=N\O)c1ccc(SSc2ccc(/C(C)=N/O)cn2)nc1
109 to 111 °C | Cc1ccc(C)n1-c1ccc(C(C)NO)cc1 (stereo not drawn)
135 to 138 °C | CN1CCCC1=Nc1ncnc2c1ncn2[C@H]1C=C[C@@H](O)C1 (racemic)
55 to 60 °C | COc1ccc(CN2C(=O)CC[C@@]3(C)c4ccc(Cl)cc4CC[C@H]23)cc1 (relative stereo)
161 to 163 °C | CC(C)(C)c1ccc(C=NOCCOc2ccc(C(=O)O)c(O)c2)cc1
118 °C | COc1cc(Cl)ccc1C(Nc1ccc(F)c2nc(C)ncc12)C(O)(C=C(C)C)C(F)(F)F (stereo not drawn)
73 to 76 °C | CCN(CC)C(=O)C(C)(C)n1cc(C)c(-c2ccccc2Cl)n1
106 to 107 °C | CCC1C(=O)CCC(Cc2ccc(OC)cc2)(Cc2ccc(OC)cc2)C1C (stereo not drawn)
110 to 111 °C | CC(C)(C)OC(=O)NCc1ccc([N+](=O)[O-])cc1
176 to 179 °C | CCCOCCOc1ccc(-c2ccc3c(c2)C=C(C(=O)O)CCS3(=O)=O)cc1
108 to 111 °C | CCOC(=O)C(=CNc1ccc(F)cc1)C(=O)c1ccc(Cl)cc1Cl
80 °C | CC(C)OC(=O)n1c(Cc2ccccc2)noc1=O
65 to 66 °C | CCCCCCCCC1C(=O)NC(=O)N1CCCCCCC(=O)O (stereo not drawn)
127 to 128 °C | CCOC(=O)c1nnc(Cc2c(F)cccc2F)n1C
243 to 244 °C | Brc1cnn2c(-c3cccnc3)ccnc12
> 300 °C | Nc1cc2nc(O)c(O)nc2c2c1CCCC2
122 to 124 °C | COc1ccc(C(=O)CC(SC(C)=O)C(=O)O)cc1 (stereo not drawn)
76 to 78 °C | CC(CO)N1CC(COc2cccc(Cl)c2)OC1=O (stereo not drawn)
76 to 77 °C | O=[N+]([O-])c1ccc(OCC(F)(F)F)c([N+](=O)[O-])c1
209 to 210 °C | NC(=O)c1c(F)ccc(OCc2nc(-c3ccc(O)cc3)no2)c1F
85 to 86 °C | CCc1cc(CCCOc2c(C)cc(-c3noc(C)n3)cc2C)on1
178 °C | N#Cc1ccc(NC(=O)c2ccc3ccccc3c2O)c(OC(F)(F)F)c1
146 to 148 °C | CCN(CC)c1nc(C)[nH]c2c(-c3ccc(Cl)cc3Cl)nc(C)c1-2

melting point | SMILES
200 to 203 °C | COc1cc2c(c(Cl)c1Cl)C(=O)C(C)(c1ccc(Br)cc1)C2 (stereo not drawn)
176 to 178 °C | CCOC(=O)N[C@@H]1[C@H](O)C(=O)N2[C@H](c3ccccc3)OC[C@@H]12
170 to 175 °C | CC(=O)N1CCc2cc(Br)cc(C#N)c21
161 to 163 °C | CC(=O)Nc1nc(CC(=O)O)ns1
157 °C | O=c1cc(C(F)(F)F)nc[nH]1
212 to 214 °C | Cc1cc(-c2cc3c(cc2C)OC(C)(C)C=C3)ccn1
112 to 114 °C | CC(=O)c1ccc(Nc2c(F)c(F)cc(F)c2F)c(CC(=O)N(C)C)c1
158 to 161 °C | O=C(CNCc1ccccc1)Nc1cccc2[nH]ccc12
209 to 210 °C | COc1ccc(NC(=O)c2ccccc2)cc1Nc1ccccc1
143 to 144 °C | O=C(OCCl)n1c(-c2cscn2)nc2ccccc21
138 °C | N#Cc1ccc2ccc(=O)n(CCN3CCC(N)CC3)c2c1
227 to 228 °C | O=C(Cc1ccc(Oc2ccccc2)cc1)NC1(C(=O)O)Cc2ccc(-c3ccc(Cl)cc3)cc2C1 (stereo not drawn)
63 to 65 °C | CCOC(=O)c1cc(N=Cc2ccccc2)ccc1O
144 to 146 °C | Nc1c([N+](=O)[O-])ccc(Sc2ccccc2)c1Cl
> 260 °C | COc1ccccc1C(CCNC(C)(C)C)c1cc(Cl)ccc1OC (stereo not drawn)
116 to 117 °C | COCOc1cc(C=CC(=O)c2c(OC)cc(OC)c(CC=C(C)C)c2O)ccc1OC
62 to 65 °C | O=C(Nc1ccc(C(F)(F)F)cc1)Nc1cccc(S(=O)(=O)NCCN2CCOCC2)c1
132 °C | CN(C(=O)[C@H]1CC[C@@H](c2ccccc2)N1C(=O)OC(C)(C)C)c1ccccc1 (racemic)
162 to 170 °C | COc1ccc(NC(=O)Nc2ccc(Cl)c(Cl)c2)cc1NC(=S)Nc1ccc(Cl)c([N+](=O)[O-])c1
81 °C | Cc1nc(-c2cccnc2)cs1
57 to 59 °C | CC(C)Oc1ccc(CCCO)c(Oc2ncc(Cl)cc2Cl)c1
160 to 170 °C | O=c1[nH]nc(-c2ccc(NN=C(c3ccccc3)c3ccc(O)cc3O)cc2)c2ccccc12
194 to 196 °C | COc1ccc(CC(C)=O)cc1S(N)(=O)=O

melting point | SMILES
121 to 122 °C | [N-]=[N+]=C(C(=O)CCc1ccc(S(=O)(=O)Cl)cc1)C(=O)CCc1ccc(S(=O)(=O)Cl)cc1
117 to 118 °C | CCOC(=O)/C=C/c1nc(COc2ccc(C=O)cc2OC)c(C)o1
189 to 191 °C | N#Cc1ccc(CN2C(=O)c3ccccc3C2=O)cc1
182 to 183 °C | CN(C)c1ccc(O)c(CNCCc2ccc(N=C(N)c3cccs3)cc2)c1
231 to 232 °C | O=C(NC(=O)c1cccs1)NC1CCN(Cc2c[nH]c3ccccc23)CC1
218 to 220 °C | COc1ccc(Cn2c(=O)cc(-c3nccn3C)c3cnc(SC)nc32)cc1Cl
91 to 92 °C | Cc1cc(C)cc(Oc2[nH]c(=O)[nH]c(=O)c2C(C)C)c1
70 to 72 °C | C=CCOc1ccccc1[N+](=O)[O-]
273 to 277 °C | Nc1c(F)cc(F)c(-n2cc(C(=O)O)c(=O)c3cc(F)c(N4CC[C@H](N)C4)nc32)c1F
139 to 141 °C | CCNC(=O)C1CCCN1C(=O)C(C)NC(=O)CCC(=O)O (stereo not drawn) (Suc-Ala-Pro-NHEt; configuration not given here)
99 to 101 °C | CCOc1ccc(Oc2ccc(CNC(=O)c3sc(C)nc3C)cc2)cc1
76 °C | CCN(CC)C(=O)c1cc2ccccc2c(-c2cccc(C(F)(F)F)c2)n1
132 to 134 °C | COc1ccc(C(CC(=O)O)c2ccc(OC)cc2)cc1
205 to 206 °C | O=C(c1ccc(-c2ccccc2)cc1)N1CCc2cn[nH]c2-c2ncccc21
96 to 97 °C | CCCCCS(=O)(=O)NC(=O)CCCc1ccc(OCCOC)cc1Oc1ncc(C(F)(F)F)cc1Cl
138 to 139 °C | CCCC(=O)Nc1c(C)c(C)c2c(c1C)C(c1ccc(C)cc1)C(C)(C)O2 (stereo not drawn)
95 to 98 °C | COc1ccc(CNC(=O)[C@@H](NC(=O)[C@H](NCc2cccc3ccccc23)[C@H](O)[C@H](Cc2ccccc2)NC(=O)OC(C)(C)C)C(C)C)c(O)c1
234 °C | CCCC1=C([N+](=O)[O-])C(c2cccc3c2OCCC3)c2c[nH]nc2N1 (stereo not drawn)
75 to 87 °C | COc1cc2c(cc1Nc1ncc(Cl)c(Nc3ccccc3S(=O)(=O)N(C)C)n1)CCN(CC(=O)N1CCC1)CC2
273 to 275 °C | CN(C)c1ncnc2[nH]c(-c3ccc(Cn4ccnc4)cc3)cc12
69 to 70 °C | O=[N+]([O-])C(CO)(CO)CCc1ccc(Sc2cccc(OCc3ccccc3)c2)cc1Cl
189 to 191 °C | CC(=O)N1CCN=C1Nc1cc(C)nn1-c1ccc(F)cc1
> 250 °C | CC1CCCN(c2c(Br)cc3c4c(cccc24)C(=O)N(O)C3=O)C1 (stereo not drawn)

SMILES | melting point
COC(C)(C)C#Cc1ncn2c1CN(C)C(=O)c1ccccc1-2 | 136 to 137 °C
CCCN1C(=O)N(CCC)C(=O)C2(CC=C3C(CCC4=Cc5c(cnn5-c5ccc(F)cc5)CC43C)O2)C1=O (stereo not drawn) | 81 to 82 °C
Cc1cc2c(cc1O)C(C)(C)CC(C)(c1cc(O)c(C)cc1O)O2 (stereo not drawn) | 190 °C
CC1Cc2cc(Cl)c(Cl)cc2C(c2ccc([N+](=O)[O-])cc2)=NN1 (stereo not drawn) | 182 to 184 °C
O=NCNC1=Nc2ccc(Cl)cc2N(c2ccccc2)C(=O)C1 | 121 to 124 °C
N#Cc1nn(-c2c(Cl)cc(C(F)(F)F)cc2Cl)c(N)c1C(F)(F)F | 191 to 193 °C
